Consider 19 compounds from patent US10590129B2 (Incozen Therapeutics Pvt. Ltd., priority 2010, dated 2020).

The test system of the test is MKN-45 cells. Briefly: Inhibition of MKN-45 proliferation (MTT). Format: cell-based, human. As to the method:
Inhibition of MKN-45 Proliferation:
Cell proliferation assays were carried out using the high Met expressing human gastric adenocarcinoma cell line, MKN-45, according to the following schedule:
Day 1: Cells were plated in 96-well plates in complete growth medium.
Day 2: Compounds at desired concentrations were added.
Day 5: Cell viability was determined using the 3-[4,5-dimethylthiazol-2-yl]-2,5-diphenyltetrazolium bromide (MTT) dye reduction test.

Where [1] appears, read: Homo sapiens, MKN-45, MKN-45 proliferation.

The structures appear in SMILES notation. Counter-ions that a name gives are not always drawn.

As for `CCNC(=O)c1ccc(-c2ccc3nnn(Cc4ccc5c(ccc[n+]5[O-])c4)c3n2)cc1Cl`, under setting [1], the inhibition (in general, the drop in the measured response relative to a control, in per cent) at 0.1 µM is less than 25% and the inhibition at 1 µM is less than 25%.

For the compound `Cc1n[nH]cc1-c1ccc2nnn(Cc3ccc4ncccc4c3)c2n1`, under setting [1], the inhibition at 0.1 µM lay within 25 to 50% and the inhibition at 1 µM was less than 25%.

`CC(c1ccc2ncccc2c1)n1nnc2ccc(-c3ccc(C(N)=O)c(Cl)c3)nc21` (racemic) [Ex 214, 2-Chloro-4-(3-(1-(quinolin-6-yl)ethyl)-3H-[1,2,3]triazolo[4,5-b]pyridin-5-yl)benzamide]: under setting [1], the 50% growth inhibitory concentration (GI50) (in general, the concentration giving 50% growth inhibition) was no more than 50 nM and the inhibition at 0.1 µM lay within 75 to 100%.

As for `C/C(=N/NC(=O)c1ccncc1)c1ccc2nnn(Cc3ccc4ncccc4c3)c2n1` (single isomer, unassigned) [Ex 220, N′-(1-(3-(quinolin-6-ylmethyl)-3H-[1,2,3]triazolo[4,5-b]pyridin-5-yl)ethylidene)iso-nicotinohydrazide], under setting [1], the inhibition at 0.1 µM was less than 25%.

Consider `OCc1ccc(-c2ccc3nnn(Cc4ccc5ncccc5c4)c3n2)cc1F` [Ex41, hydrochloride], for which the GI50 (MKN-45 proliferation, hydrochloride) fell in the range of 50 to 150 nM.

Compound `O=C(NC1CCCCC1)c1ccc(-c2ccc3nnn(Cc4ccc5ncccc5c4)c3n2)cc1F` [Ex45] yielded a GI50 under setting [1] of 50 to 150 nM.

On to `CNC(=O)c1cccc(-c2ccc3nnn(Cc4ccc5ncccc5c4)c3n2)c1` [Ex55], for which the GI50 under setting [1] fell in the range of 50 to 150 nM.

For `C=CCNC(=O)c1ccc(-c2ccc3nnn(Cc4ccc5ncccc5c4)c3n2)cc1F` [Ex61], the GI50 under setting [1] is no more than 50 nM.

`CONC(=O)c1ccc(-c2ccc3nnn(Cc4ccc5ncccc5c4)c3n2)cc1F` [Ex62] displayed a GI50 under setting [1] of no more than 50 nM.

As for `Nc1ccc(-c2ccc3nnn(Cc4ccc5ncccc5c4)c3n2)cc1` [Ex64], the inhibition at 0.1 µM under setting [1] is less than 25%.

For the compound `O=C(NCc1ccco1)c1ccc(-c2ccc3nnn(Cc4ccc5ncccc5c4)c3n2)cc1F` [Ex92], the inhibition at 0.1 µM under setting [1] is less than 25%.

For `O=C(NC1CC1)c1ccc(-c2ccc3nnn(Cc4ccc5ncccc5c4)c3n2)cc1Cl` [Ex113], the inhibition at 0.1 µM under setting [1] was 75 to 100%.

The compound `C[C@H](c1ccc2ncccc2c1)n1nnc2ccc(-c3ccc(C(N)=O)c(Cl)c3)nc21` [Ex222] yielded a GI50 under setting [1] of 150 to 500 nM.

The compound `O=C(O)c1ccc(-c2ccc3nnn(Cc4ccc5ncccc5c4)c3n2)cc1` [Ex 22, Lithium 4-(3-(quinolin-6-ylmethyl)-3H-[1,2,3]triazolo[4,5-b]pyridin-5-yl)benzoate] came in with an inhibition at 1 µM (Homo sapiens, MKN-45 proliferation) of less than 25%.

`CN1CCN(C(=O)c2ccc(-c3ccc4nnn(Cc5ccc6ncccc6c5)c4n3)cc2)CC1` [Ex 26, (4-Methylpiperazin-1-yl)(4-(3-(quinolin-6-ylmethyl)-3H-[1,2,3]triazolo[4,5-b]pyridin-5-yl)phenyl)methanone]: the GI50 under setting [1] was less than 1000 nM.

The compound `CN(C)CCNC(=O)c1ccc(-c2ccc3nnn(Cc4ccc5ncccc5c4)c3n2)cc1` [Ex 27, N-(2-(dimethylamino)ethyl)-4-(3-(quinolin-6-ylmethyl)-3H-[1,2,3]triazolo[4,5-b]pyridin-5-yl)benzamide] had a GI50 under setting [1] of 50 to 150 nM.

Turning to `O=C(NC1CCOCC1)c1ccc(-c2ccc3nnn(Cc4ccc5ncccc5c4)c3n2)cc1` [Ex 28, 4-(3-(quinolin-6-ylmethyl)-3H-[1,2,3]triazolo[4,5-b]pyridin-5-yl)-N-(tetrahydro-2H-pyran-4-yl)benzamide], the GI50 under setting [1] fell in the range of 150 to 500 nM.

The compound `O=C(NC1CCNCC1)c1ccc(-c2ccc3nnn(Cc4ccc5ncccc5c4)c3n2)cc1` [Ex 30, N-(Piperidin-4-yl)-4-(3-(quinolin-6-ylmethyl)-3H-[1,2,3]triazolo[4,5-b]pyridin-5-yl)benzamide hydrochloride] showed a GI50 under setting [1] of 150 to 500 nM.

`CN(C)CCNC(=O)c1ccc(-c2ccc3nnn(Cc4ccc5ncccc5c4)c3n2)cc1F` [Ex 31, N-(2-(dimethylamino)ethyl)-2-fluoro-4-(3-(quinolin-6-ylmethyl)-3H-[1,2,3]triazolo[4,5-b]pyridin-5-yl)benzamide]: the GI50 under setting [1] lay within 150 to 500 nM.
